Test results taken from US9993491B2, “Guanine riboswitch binding compounds and their use as antibiotics” (SOCPRA—SCIENCES ET GENIE S.E.C., priority 2009, dated 2018).
≈ marks a conversion by molar mass, not a printed value. Read-outs that look alike come from different tables or passages of the source.

Experiments:
[1] = test system: guanine xpt riboswitch from Streptococcus pyogenes (STPY-xpt); test: Relative binding by displacement of 2-aminopurine from the STPY-xpt aptamer
Method: Shown in FIG. 4A is the structure of the guanine ligand and the compounds: 4-hydroxy-2,5,6-triaminopyrimidine shown as 2,5,6-triaminopyrimidine-4-one (compound 1.01), 2,4-diamino-6-hydroxypyrimidine shown as 2,6-diaminopyrimidine-4-one (compound 1.13) and 5,6-diamino-uracil (2AU) as well as their predicted hydrogen bonds (arrows). […] The experiment was performed as in for example Mulhbacher and Lafontaine, 2007. […] Briefly, STPY-xpt aptamers were incubated in the presence of the guanine-like ligand 2-aminopurine alone (Neg. control) or in the presence of 1 or 10 μM of the above-listed compounds. The relative binding affinity was obtained from the ability of a ligand to displace the 2-aminopurine from the guanine riboswitch STPY-xpt aptamer.

[2] = test system: guanine riboswitch; test: Guanine riboswitch binding (Table 6); conditions: Yes/No
[3] = test system: S. aureus strain ATCC 29213; test: MIC / growth inhibition, microdilution method; format: cell-based; conditions: for MIC: Staphylococcus aureus, ATCC29213, 24 h; for S. aureus growth inhibition: Yes/No
[4] = test system: E. coli ATCC35695; test: MIC, microdilution method in 96-well microplates; conditions: for Antimicrobial activity on E. coli: E. coli strain ATCC 35695; for MIC: Escherichia coli, ATCC35695, 24 h, read-out: Minimum inhibitory concentration (MIC)
[5] = test system: E. coli AcrAB—/—; test: microbe, parasite or virus in culture; conditions: Escherichia coli, 24 h, read-out: Minimum inhibitory concentration (MIC)
[6] = test system: E. coli Imp; test: microbe, parasite or virus in culture; conditions: Escherichia coli, 24 h, read-out: Minimum inhibitory concentration (MIC)
[7] = test system: S. aureus genes; test: Transcriptomic microarray analysis of more than 500 genes; format: cell-based; conditions: 30 min
[8] = Tolerance of intramammary injection in cows; format: in vivo, Holstein cows; conditions: intramammary 100 mg, 250 mg or 500 mg per quarter, 4 cows, 48 h
[9] = test system: S. aureus strain ATCC 29213; test: Growth as a function of time (CFU counts); format: cell-based; conditions: compared with ciprofloxacin
[10] = test system: Bacillus halodurans, S. haemolyticus, S. aureus ATCC29213, SA228a, MRSA COL, Clostridium botulinum, Clostridium difficile Cd6 and 630, S. epidermidis; format: cell-based
[11] = test system: S. aureus strain ATCC 29213; format: cell-based; conditions: sub-inhibitory concentrations, MIC determined every 5 passages up to 30
[12] = test system: S. aureus ATCC 29213; test: Bactericidal activity, fold reduction of CFU/mL; format: cell-based; conditions: 600 μg/mL, 4 hours
Method: (§1) The bactericidal activity of compound 1.01 on various strains of S. aureus (including 3 chronic strains and 3 prototypical strains) was determined. These strains include prototypical S. aureus strains ATCC 29213, Newbould 305, SHY97-3906 as well as S. aureus strains isolated from persistent and chronic bovine mastitis cases (isolates #3, #557, #1290). C. difficile strain Cd6 was also examined. […] The results are summarized in Table 5 below and are expressed as the mean fold reduction of CFU/mL (i.e., the number of CFU/mL of control bacteria divided by the number of CFU/mL of treated bacteria).

[13] = test system: S. aureus Chronic #557; test: Bactericidal activity, fold reduction of CFU/mL; format: cell-based; conditions: 600 μg/mL, 4 hours
Method: as §1

[14] = test system: S. aureus SHY97-3906; test: Bactericidal activity, fold reduction of CFU/mL; format: cell-based; conditions: 600 μg/mL, 4 hours
Method: as §1

[15] = test system: C. difficile (Cd6); test: Bactericidal activity, fold reduction of CFU/mL; format: cell-based; conditions: 600 μg/mL, 4 hours
Method: as §1

[16] = test system: S. aureus Chronic #1290; test: Bactericidal activity, fold reduction of CFU/mL; format: cell-based; conditions: 600 μg/mL, 4 hours
Method: as §1

[17] = test system: S. aureus Chronic #3; test: Bactericidal activity, fold reduction of CFU/mL; format: cell-based; conditions: 600 μg/mL, 4 hours
Method: as §1

[18] = test system: S. aureus Newbould 305; test: Bactericidal activity, fold reduction of CFU/mL; format: cell-based; conditions: 600 μg/mL, 4 hours
Method: as §1

[19] = test system: S. aureus; test: S. aureus infection of the mouse mammary glands, CFU count; format: in vivo; conditions: intra-mammary injection of 10 times the effective dose; treated 4 h after infection, glands excised 6 h later
Method: The efficacy of compound 1.01 in treating a S. aureus infection of the mouse mammary glands was examined. Briefly, mouse mammary glands were infected with 100 CFU of S. aureus. Four hours after the inoculation, the glands were treated with vehicle (PBS), 10, 50 or 100 μg/gland of compound 1.01. Six hours later, glands were excised, homogenized and plated on Mueller-Hinton agar. CFU were then counted after 18 hours at 35° C. Each dot represents the CFU of each individual gland (n=6-12) and the median value for each group is indicated by the bar. Statistical differences (P<0.05) between CFU recovered from treated and untreated animals are shown by asterisks (non-parametric Kruskal-Wallis ANOVA with Dunn's post test).

[20] = test system: Bacillus subtilis, Enterococcus feacium, Listeria monocytogenes, Streptococcus dysgalactiae, Streptococus pyogenes, Streptococcus uberis; format: cell-based
[21] = test system: methicillin resistant S. aureus; test: Antibiogram with 6-thioguanine; format: cell-based; conditions: 0.5 or 1 mg/mL
[22] = test system: E. coli ATCC 35695; test: Antibiogram with 6-thioguanine; format: cell-based; conditions: 0.5 or 1 mg/mL; E. coli ATCC 35695 (lacks guaA riboswitch)
[23] = compound at 10 μM, compared with 1 μM guanine
[24] = S. aureus ATCC 29213, 24 h, 37° C., read-out: S. aureus growth inhibition, MIC
[25] = S. aureus ATCC 29213, 24 h, 37° C., read-out: MIC

Nc1ncnc2[nH]cnc12 [adenine]
Relative binding [1, 23]: 0.05

Nc1nc(S)[nH]c(=O)c1N [Compound 1.16, 4,5-diamino-6-hydroxy-2-mercaptopyrimidine]
Guanine riboswitch binding [2]: Yes | MIC [3, 24]: 128 µg/mL (≈ 809 µM) | S. aureus growth inhibition [3]: Yes | Antimicrobial activity on E. coli [4]: no antimicrobial activity

O=c1[nH]c(=O)c2nc[nH]c2[nH]1 [xanthine]
Relative binding [1, 23]: 0.08

CC[C@H]1OC(=O)[C@H](C)[C@@H](O[C@H]2C[C@@](C)(OC)[C@@H](O)[C@H](C)O2)[C@H](C)[C@@H](O[C@@H]2O[C@H](C)C[C@H](N(C)C)[C@H]2O)[C@](C)(O)C[C@@H](C)C(=O)[C@H](C)[C@@H](O)[C@]1(C)O [Erythromicin, reference compound]
MIC [5]: 1 to 4 µg/mL (≈ 1.36 to 5.45 µM) | MIC [6]: 0.125 to 1 µg/mL (≈ 0.17 to 1.36 µM) | MIC [3, 25]: 0.5 µg/mL (≈ 0.681 µM) | MIC [4]: 128 µg/mL (≈ 174 µM)

O=c1[nH]cnc2[nH]cnc12 [hypoxanthine]
Relative binding [1, 23]: 0.50

Nc1[nH]c(=O)[nH]c(=O)c1N
Relative binding [1, 23]: 0.05

Nc1nc(N)c(N)c(O)n1 [Compound 1.01, 4-hydroxy-2,5,6-triaminopyrimidine]
Genes repressed ([7]; 600 μg/mL compound alone): > 75% | Genes repressed ([7]; 600 μg/mL compound supplemented with 100 μM GMP): 20% | Body temperature, milk appearance, milk somatic cell counts, milk quarter production [8]: no change in body temperature, milk appearance, milk somatic cell counts or individual milk quarter production | Rapidity of anti-bacterial effect [9]: as rapid as that of the well-known antibiotic ciprofloxacin | Cytotoxicity upon histological observations of mammary tissues (100 μg/gland, compared to PBS-treated glands): no apparent cytotoxicity | Signs of toxicity in mice (posture, breathing, piloerection, movement) (mouse, in vivo): without causing any significant signs of toxicity | MIC [5]: > 5000 µg/mL | MIC [6]: > 5000 µg/mL | Relative binding [1, 23]: 0.26 | Sensitivity of strains in antibiogram [10]: sensitive | Passages until resistance is selected [11]: at least 30 passages | MIC [3, 25]: ~600 µg/mL (≈ 4250 µM) | Fold reduction of CFU/mL (control/treated), Mean (log10) [12]: 6.67 log10 | Fold reduction of CFU/mL (control/treated), Mean (log10) [13]: 4.38 log10 | Fold reduction of CFU/mL (control/treated), Mean (log10) [14]: 6.35 log10 | Fold reduction of CFU/mL (control/treated), Mean (log10) [15]: 5.42 log10 | Fold reduction of CFU/mL (control/treated), Mean (log10) [16]: 5.42 log10 | Fold reduction of CFU/mL (control/treated), Mean (log10) [17]: 5.11 log10 | Fold reduction of CFU/mL (control/treated), Mean (log10) [18]: 4.86 log10 | Reduction of bacterial counts [19]: > 3 log10 | Sensitivity of strains in antibiogram [20]: insensitive | MIC [4]: > 5000 µg/mL

O=C(O)c1cn(C2CC2)c2cc(N3CCNCC3)c(F)cc2c1=O [ciprofloxacin, reference compound]
MIC [3, 25]: 0.5 µg/mL (≈ 1.51 µM)

Nc1cc(=O)[nH]c(N)n1 [Compound 1.13, 2,4-diamino-6-hydroxypyrimidine]
MIC [5]: > 5000 µg/mL | MIC [6]: > 5000 µg/mL | Relative binding [1, 23]: 0.39 | MIC [3, 25]: ~5000 µg/mL (≈ 39600 µM) | MIC [4]: > 5000 µg/mL

Nc1nc2ocnc2c(=O)[nH]1 [Compound 2.02, 5-Amino-6H-oxazolo[5,4-d]pyrimidin-7-one]
Guanine riboswitch binding [2]: able to bind guanine riboswitch and Yes | S. aureus growth inhibition, MIC ([3]; S. aureus ATCC 29213, 24 h, 37° C.): 1000 µg/mL | MIC [3, 24]: 1020 µg/mL (≈ 6730 µM) | S. aureus growth inhibition [3]: Yes | Antimicrobial activity on E. coli [4]: no antimicrobial activity

Nc1nc2[nH]cnc2c(=S)[nH]1 [6-thioguanine]
Antibiotic activity in antibiogram [21]: non-specific antibiotic activity | Relative binding [1, 23]: 0.14 | Antibiotic activity in antibiogram [22]: non-specific antibiotic activity

Nc1nc2[nH]cnc2c(=O)[nH]1 [guanine]
Relative binding ([1]; compound at 1 μM): 1

Nc1nc2nc(Cl)sc2c(=O)[nH]1 [Compound 2.17, 5-amino-2-chloro-2,3-dihydrothiazolo[4,5]pyrimidine-7-(6H)-one]
Guanine riboswitch binding [2]: Yes | MIC [3, 24]: 128 µg/mL (≈ 632 µM) | S. aureus growth inhibition [3]: Yes | Antimicrobial activity on E. coli [4]: no antimicrobial activity

CN[C@H](CC(C)C)C(=O)N[C@H]1C(=O)N[C@@H](CC(N)=O)C(=O)N[C@H]2C(=O)N[C@H]3C(=O)N[C@H](C(=O)N[C@H](C(=O)O)c4cc(O)cc(O)c4-c4cc3ccc4O)[C@H](O)c3ccc(c(Cl)c3)Oc3cc2cc(c3O[C@@H]2O[C@H](CO)[C@@H](O)[C@H](O)[C@H]2O[C@H]2C[C@](C)(N)[C@H](O)[C@H](C)O2)Oc2ccc(cc2Cl)[C@H]1O [Vancomycin, reference compound]
MIC [5]: > 128 µg/mL | MIC [6]: 0.25 µg/mL (≈ 0.173 µM) | MIC [3]: 1 µg/mL (≈ 0.69 µM) | MIC [4]: > 128 µg/mL
